In the supplement of paper PMC11208160:

Assay: recombinant UMI read abundance after kanamycin selection (control-corrected) (log10(CPM+1)); higher = more efficient recombination; extreme values may be limits of the assay; sequences stand for … in AGTGCAGAGAAAATCGGCCAGTTTTCTCTGCCTGCAGTCCGCATGCCGTGGGACCCCTTGGGTTCTAACCTGTTGCCTAGATTTATGCAGCGGACTGCCTTTCTCCCAAAGTGATAAACCGG…AGGTTGGTTTCACT; site = the 11-nt donor
Method in brief: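 Pooled Escherichia coli screen of donor and donor-binding-loop pairs for the IS621 bridge recombinase. Each pair sits with a 12-nt UMI on a plasmid carrying a promoterless kanamycin gene. The library was co-electroporated with a target plasmid encoding a fixed target and T7-inducible recombinase, then plated with IPTG (0.07 mM) plus kanamycin, or unselected, each in two replicates. Recombinant UMIs were PCR-amplified across the donor–target junction and sequenced. Counts became CPM, averaged over replicates, scaled by control-derived factors and reported as log10(CPM+1).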
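Note: IS621 bridge recombinase in Escherichia coli cells against a fixed T5 target plasmid.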

First: AGCGAGCCATGGACCGGTTTTCCCGGTAATCCGTATTTGTT (site AGCGAGCCTAA)
Second: AGCGGATCATGGACCGGTTTTCCCGGTAATCCGTATTTGAG (site AGCGGATCTCT)
The “recombinant UMI read abundance (log10)” value of the first is lower: 0.501 for the first, 2.33 for the second.

Compared with “AGCGTGGCATGGACCGGTTTTCCCGGTAATCCGTATTTGGG (site AGCGTGGCTCC)”, “AGCGTTTCATGGACCGGTTTTCCCGGTAATCCGTATTTGAC (site AGCATTTCTGT)” is lower in “recombinant UMI read abundance (log10)” value: 0.277 for the first, 0 for the second.

First: AGCGTTTCATGGACCGGTTTTCCCGGTAATCCGTATTTGAC (site AGCCTTTCTGT)
Second: AGCGTTTCATGGACCGGTTTTCCCGGTAATCCGTATTTGAC (site AGCGTTTCTGT)
The “recombinant UMI read abundance (log10)” value of the first is lower: 0 for the first, 2.63 for the second.

Compared with “AGCGTTTCATGGACCGGTTTTCCCGGTAATCCGTATTTGAC (site AGCTTTTCTGT)”, “AGCTACGCATGGACCGGTTTTCCCGGTAATCCGTATTTGTC (site AGCTACGCTGA)” is higher in “recombinant UMI read abundance (log10)” value: 0.136 for the first, 2.27 for the second.

Compared with “AGCTAGACATGGACCGGTTTTCCCGGTAATCCGTATTTGGG (site AACTAGACTCC)”, “AGCTAGACATGGACCGGTTTTCCCGGTAATCCGTATTTGGG (site ACCTAGACTCC)” is higher in “recombinant UMI read abundance (log10)” value: 0.0198 for the first, 0.239 for the second.

“AGCTAGACATGGACCGGTTTTCCCGGTAATCCGTATTTGGG (site AGCTAGACTCC)” and “AGCTAGACATGGACCGGTTTTCCCGGTAATCCGTATTTGGG (site ATCTAGACTCC)” are within 0.2 log units of each other in “recombinant UMI read abundance (log10)” value: 0.0244 for the first, 0.0227 for the second.

Compared with “AGCTATTCATGGACCGGTTTTCCCGGTAATCCGTATTTGGC (site AGCTATTCTGC)”, “AGCTCAGCATGGACCGGTTTTCCCGGTAATCCGTATTTGCG (site AGCTCAGCTCA)” is lower in “recombinant UMI read abundance (log10)” value: 0.69 for the first, 0.0116 for the second.

Going from “AGCTCAGCATGGACCGGTTTTCCCGGTAATCCGTATTTGCG (site AGCTCAGCTCC)” to “AGCTCAGCATGGACCGGTTTTCCCGGTAATCCGTATTTGCG (site AGCTCAGCTCG)”, the “recombinant UMI read abundance (log10)” value rises from 0.00908 to 0.537.

“AGCTCAGCATGGACCGGTTTTCCCGGTAATCCGTATTTGCG (site AGCTCAGCTCT)” and “AGCTCCGCATGGACCGGTTTTCCCGGTAATCCGTATTTGCG (site AGCTCCGCTCG)” are within 0.2 log units of each other in “recombinant UMI read abundance (log10)” value: 0.277 for the first, 0.271 for the second.

Going from “AGCTGGTCATGGACCGGTTTTCCCGGTAATCCGTATTTGTA (site AGCTGGTCTTA)” to “AGCTTAGCATGGACCGGTTTTCCCGGTAATCCGTATTTGGG (site AGCTAAGCTCC)”, the “recombinant UMI read abundance (log10)” value falls from 0.951 to 0.0186.

“AGCTTAGCATGGACCGGTTTTCCCGGTAATCCGTATTTGGG (site AGCTCAGCTCC)” and “AGCTTAGCATGGACCGGTTTTCCCGGTAATCCGTATTTGGG (site AGCTGAGCTCC)” are within 0.2 log units of each other in “recombinant UMI read abundance (log10)” value: 0.0187 for the first, 0.034 for the second.

“AGCTTAGCATGGACCGGTTTTCCCGGTAATCCGTATTTGGG (site AGCTTAGCTCC)” and “AGGAAACCATGGACCGGTTTTCCCGGTAATCCGTATTTGTT (site AGGAAACCTAA)” are within 0.2 log units of each other in “recombinant UMI read abundance (log10)” value: 0.0198 for the first, 0 for the second.

Going from “AGGAAACCATGGACCGGTTTTCCCGGTAATCCGTATTTGTT (site CGGAATCCTAA)” to “AGGAACACATGGACCGGTTTTCCCGGTAATCCGTATTTGAA (site AGGAACACTTT)”, the “recombinant UMI read abundance (log10)” value rises from 0 to 2.29.

Compared with “AGGAACACATGGACCGGTTTTCCCGGTAATCCGTATTTGAA (site AGGAAGACTTG)”, “AGGAACCCATGGACCGGTTTTCCCGGTAATCCGTATTTGCA (site AGGAACCCTTG)” is higher in “recombinant UMI read abundance (log10)” value: 0 for the first, 0.786 for the second.

Compared with “AGGAACCCATGGACCGGTTTTCCCGGTAATCCGTATTTGCA (site AGGAAGACTTG)”, “AGGAAGACATGGACCGGTTTTCCCGGTAATCCGTATTTGAA (site AGGAAGACTTA)” is higher in “recombinant UMI read abundance (log10)” value: 0 for the first, 0.985 for the second.

Going from “AGGAAGACATGGACCGGTTTTCCCGGTAATCCGTATTTGAA (site AGGAAGACTTC)” to “AGGAAGACATGGACCGGTTTTCCCGGTAATCCGTATTTGAA (site AGGAAGACTTG)”, the “recombinant UMI read abundance (log10)” value falls from 0.592 to 0.298.
